Data: patent publication US11219625B2, “Inhibitors of N-linked glycosylation and methods using same” (YALE UNIVERSITY, priority 2015, dated 2022)

Experiments:
FGFR1 = assay: Western blot of FGFR phosphorylation, H1581 and H2444 cells; format: cell-based; conditions: H1581 and H2444, FIG. 4F
Procedure: FIGS. 4A-4H illustrate the finding that NGI-1 blocks RTK driven proliferation. FIG. 4A illustrates western blot analysis of EGFR phosphorylation (Y1173) and gel mobility in PC9 (EGFR-mutant) and A549 (k-ras mutant) NSCLC cells after 10 μM NGI-1 treatment for 24 h. […] Actin expression was used as a control for protein loading. FIG. 4B illustrates MTT assays results of PC9 following treatment with 10 μM NGI-1 or 1 μM tunicamycin for a total of 5 d. Relative proliferation id reported in fold increase from day 0. FIG. 4C illustrates MTT assays results of A549 following treatment with 10 μM NGI-1 or 1 μM tunicamycin for a total of 5 d. Relative proliferation id reported in fold increase from day 0. FIG. 4D illustrates protein phosphorylation profiles of PC9 cells analyzed by phospho-protein array to assess the response of PC9 to 10 μM NGI-1 for 24 h. FIG. 4E illustrates protein phosphorylation profiles of A549 cells analyzed by phospho-protein array to assess the response of A549 to 10 μM NGI-1 for 24 h. FIG. 4F illustrates western blot analysis of FGFR phosphorylation (Y653/654) and gel mobility for H1581 (TKI sensitive) and H2444 (TKI insensitive) NSCLC cell lines. […] FIG. 4G illustrates MTT assays for H1581 cells treated with 10 μM NGI-1 for 5 d. Asterisk (***) indicates a significant difference p<0.001 for MTT. FIG. 4H illustrates MTT assays for H2444 cells treated with 10 μM NGI-1 for 5 d. […]

cyclin D1 = assay: Cyclin D1 expression (qRT-PCR, western blot), PC9; format: cell-based, human
Procedure: FIGS. 5A-5G illustrate NGI-1 induces G1 arrest and senescence in EGFR addicted tumor cells. FIG. 5A illustrates cell cycle distribution of PC9 cells after 24 h NGI-1 treatment for 24 h determined by flow cytometry. […] FIG. 5B illustrates cell cycle distribution of A549 cells after 24 h NGI-1 treatment for 24 h determined by flow cytometry. FIG. 5C illustrates western blot time course of cyclin D1 expression in PC9 and A549 cells after NGI-1 treatment. FIG. 5D illustrates quantitative real-time PCR analysis of PC9 and A549 cells. A time course of cyclin D1 expression levels relative to GAPDH is represented. […] FIG. 5F illustrates senescence of PC9 cells explored by: cell autofluorescence, measured by flow cytometry using a detector for PE/YFP; lipofuscin accumulation, detected by confocal laser scanning microscopy using an excitation laser of 405 nm with acquired signals from spectrums of yellow 575-620 nm; and morphology changes, enlarged vs. flattened. […] Significance was calculated using a T test (*p<0.05. **p<0.01). FIG. 5G illustrates senescence of A549 cells explored by: cell autofluorescence, measured by flow cytometry using a detector for PE/YFP; lipofuscin accumulation, detected by confocal laser scanning microscopy using an excitation laser of 405 nm with acquired signals from spectrums of yellow 575-620 nm; and morphology changes, enlarged vs. flattened. […]

Cc1cnc(NC(=O)c2cc(S(=O)(=O)N(C)C)ccc2N2CCCC2)s1 [NGI-1, 5-(N,N-Dimethylsulfamoyl)-N-(5-methylthiazol-2-yl)-2-(pyrrolidin-1-yl)benzamide] was tested, and the FGFR1 phosphorylation (FGFR1) was “blocked FGFR1 phosphorylation”, the “cyclin D1 reduced, protein level” value (cyclin D1; PC9) was 40% and the “cyclin D1 reduced, mRNA level” value (cyclin D1; PC9, p<0.01) was 40%±15%.
